# Measurements as given in patent US12458659B2, “Methods for treating macrophage-mediated diseases, and methods of identifying agents useful therefore” (The Regents of the University of California, priority 2019, dated 2025).
# Key:
# Format in all cases: cell-based, mouse
# NLRP3 inflammasome = assay: IL-1β release by LPS-primed macrophages stimulated with NLRP3 activators (ELISA); settings: LPS-primed
# Method: Macrophage culture and stimulation—Femurs and tibias from C57BL/6 mice, Ampkα1^−/− mice, and Il10rb^−/− mice at 6-10 weeks of age were used to generate bone-marrow-derived macrophages (BMDM) as described (Hornung et al., 2008). Macrophages were cultured in DMEM supplemented with 10% FBS, 20% L929-cell conditioned medium, and 100 U/ml penicillin-streptomycin for 7-10 days. Bone marrow was isolated from MWS Nlrp3^A350VneoRCreT, FCAS Nlrp3^L351PneoCreT and NOMID Nlrp3^D301NneoCreT conditional knock-in mice (Bonar et al., 2012; Brydges et al., 2009), and were allowed to differentiate over 7 days with addition of fresh mouse recombinant GMCSF every three days. (Z)-4-hydroxitamoxifen at 0.4 μg/ml was added to cells 24 hr prior to treatment to induce the mutant Nlrp3 allele. Immortalized mouse BMDM were grown in DMEM supplemented with 10% FBS and 100 U/ml penicillin-streptomycin. All cells were grown at 37° C. with 5% CO2. NLRP3 inflammasome activation was induced priming for 4 hr with ultrapure LPS (100 ng/ml) followed by treatment with the NLRP3 activators ATP (4 mM) and nigericin (10 μM) for 45 min, unless otherwise indicated, and monosodium urate (MSU) crystals (400 μg/ml) and 1,2-dioleoyl-3-trimethylammoniumpropane (DOTAP) liposomes (50 μg/ml) for 3 hr. In Nlrp3 mutant macrophages IL-1b production was induced by LPS treatment for 16 hr at 37° C., whereas FCAS macrophages were incubated at 32° C. without LPS addition. AIM2 inflammasome activation was induced by 4 hr LPS priming and transfection with lipofectamine 3000 and the AIM2 activator poly(dA:dT) (1 μg/ml) for 8 hr. For choline deprivation experiments, the cells were cultured in CMRL1066 medium with or without choline for 2-3 hr before priming with LPS and kept during the experiment.
# (§1) Protein Immunoblotting and ELISA—Mitochondria were isolated using Mitochondria Isolation kit. Whole cell lysates were prepared in NP40 buffer containing a protease inhibitor cocktail and a phosphatase inhibitor cocktail, and supernatants were analyzed by SDS-PAGE. […]
# BMDM [1] = assay: Cytosolic mtDNA (QPCR); settings: RSM932A-pretreated BMDM, LPS-primed, ATP or nigericin
# Method: Cellular fractionation and measurement of cytosolic mtDNA—BMDM were primed with LPS and stimulated with an NLRP3 inflammasome activator. Cellular fractionation was performed using Mitochondrial Isolation kit (ThermoScientific) according to manufacturer's instructions. Cytosolic mtDNA was analyzed as described (Nakahira et al., 2011). Briefly, DNA was isolated from 300 μl of the cytosolic fractions using All Prep DNA/RNA kit, and mitochondrial DNA encoding cytochrome c oxidase 1 and D-Loop were measured by QPCR with an equal volume of the DNA solution. Nuclear DNA encoding 18S ribosomal RNA and Tert was used for normalization. Primer sequences were obtained from the NIH qPrimerDepot (mouseprimerdepot.nci.nih.gov) and provided by Integrated DNA Technologies, as set forth below.
# caspase-1 = assay: Caspase-1 activation in LPS-primed, ATP-treated BMDM (immunoblot); settings: ATP-treated BMDM pretreated with RSM932A
# Method: Macrophage culture and stimulation—Femurs and tibias from C57BL/6 mice, Ampkα1^−/− mice, and Il10rb^−/− mice at 6-10 weeks of age were used to generate bone-marrow-derived macrophages (BMDM) as described (Hornung et al., 2008). Macrophages were cultured in DMEM supplemented with 10% FBS, 20% L929-cell conditioned medium, and 100 U/ml penicillin-streptomycin for 7-10 days. Bone marrow was isolated from MWS Nlrp3^A350VneoRCreT, FCAS Nlrp3^L351PneoCreT and NOMID Nlrp3^D301NneoCreT conditional knock-in mice (Bonar et al., 2012; Brydges et al., 2009), and were allowed to differentiate over 7 days with addition of fresh mouse recombinant GMCSF every three days. (Z)-4-hydroxitamoxifen at 0.4 μg/ml was added to cells 24 hr prior to treatment to induce the mutant Nlrp3 allele. Immortalized mouse BMDM were grown in DMEM supplemented with 10% FBS and 100 U/ml penicillin-streptomycin. All cells were grown at 37° C. with 5% CO2. […]
# as §1
# BMDM [2] = assay: Mitochondrial membrane potential (TMRM); settings: RSM932A-pretreated, LPS-primed; at least as effectively as CCCP
# Method: Mitochondrial Function—Mitochondrial membrane potential (Ψm) was measured using TMRM (#T668, Life Technologies) according to manufacturer's instructions. Briefly, RSM932A-pretreated BMDM and shCtrl and shChoKα iBMDM were primed with LPS for 4 hr. Cells were stained with 200 nM TMRM for 30 min at 37° C., and then treated with CCCP (5 μM) for 5 min. After washing twice, fluorescence intensity was determined per manufacturer's instructions using a FilterMax F5 multimode plate reader (Molecular Devices), Mitochondrial reactive oxygen species (mtROS) was measured using MitoSOX (Invitrogen) as described (Zhong et al., 2016c). […] After washing with PBS, fluorescence intensity was determined at 510/580 nm using a FilterMax F5 plate reader. NAD^+/NADH ratio was measured using NAD^+/NADH Cell-Based Assay kit according to manufacturer's instructions (Cayman Chemical Company). […] Absorbance was measured at 450 nm using FilterMax F5 plate reader. Complex V ATP synthase activity was measured in mitochondria isolated from BMDM treated with LPS for 24 hr using Complex V Activity Assay kit (Cayman Chemical Company) according to manufacturer's instructions. Absorbance was measured at 340 nm at 30-second intervals for 30 min using a FilterMax F5 plate reader. Cellular ATP was measured after 24 hr LPS stimulation using CellTiter-Glo Luminescent Assay (Promega) as described (Ip et al., 2017). […]
compound,measurement,setting,value
C/[N+](c1ccc(Cl)cc1)=c1\ccn(Cc2ccc(-c3ccc(Cn4cc/c(=[N+](/C)c5ccc(Cl)cc5)c5ccccc54)cc3)cc2)c2ccccc12 [RSM932A],IL-1β production,"NLRP3 inflammasome; BMDM pretreated overnight with 5 μM RSM932A, ATP or MSU-stimulated, compared with ChoKα knockdown (reduced)",produced a similar effect
same,reduction of MSU-induced IL-1β release,"NLRP3 inflammasome; MSU-stimulated BMDM pretreated overnight with 5 μM RSM932A, p<0.005",71%
same,amount of cytosolic mtDNA,BMDM [1],reduced
same,caspase-1 activation,caspase-1,inhibited
same,mitochondrial membrane potential (Ψm),BMDM [2],reduced
